Laboratory results from paper PMC12239085, “Silver(I) Ions Bridging Oxadiazole-2-thione Derivatives with Mitochondriotropic Agents: A Promising Strategy for Potent Anticancer Chemotherapy” (Inorganic Chemistry, 2025).
Values joined by “and” are separate entries in the source; they are usually repeats but may differ in a detail not shown here. Identical values can stand only once. Like-named read-outs stand apart in the source and are kept apart here.

What was measured:
[1] = system: MCF-7 human breast adenocarcinoma cells (hormone-dependent); assay: SRB antiproliferative assay, MCF-7; type: cell-based; settings: for IC50: SRB assay, 48 h incubation; for pIC50 MCF-7: p(IC50)= -Log(IC50), Table S4, this study
Description: (§1) Stock solutions of compounds 1a–5a and 1–5 (0.01 M) in DMSO were freshly prepared and subsequently diluted with cell culture media to appropriate concentrations for various biological experiments. These included the assessment of cell viability using the SRB assay, micronucleus testing, cell morphology studies, cell cycle arrest, AO/EB staining, and mitochondrial membrane permeabilization tests. For CT-DNA binding studies, experiments were conducted in DMSO/buffer solutions. All biological experiments were performed in triplicate or more.
(§2) Stock solutions of 1a–5a and 1–5 (0.01 M) were dissolved in DMSO and subsequently diluted with cell culture medium to the desired concentrations (0.5–30 μM). MCF-7, MDA MB-231, and MRC-5 cells were plated in 96-well flat-bottom microplates at various densities: 6000, 8000, and 2000 cells per well, respectively. The cells were incubated for 24 h at 37 °C and then exposed to 1a–5a and 1–5 for 48 h. ,–
(§3) Cytotoxicity was evaluated using the SRB colorimetric assay at λ = 568 nm, with cell survival percentages calculated relative to the untreated control cells. Detailed information on the SRB assay procedure can be found in the previous publication. ,–

[2] = system: MDA-MB-231 human breast adenocarcinoma cells (hormone-independent); assay: SRB antiproliferative assay, MDA-MB-231; type: cell-based; settings: 48 h incubation
Description: as §1, §2, §3

[3] = system: normal human fetal lung fibroblast (MRC-5) cells; assay: SRB toxicity assay, MRC-5; type: cell-based; settings: 48 h incubation
Description: as §1, §2, §3

MRC-5 cells = assay: In vitro micronucleus (MN) assay; type: cell-based, human; settings: for Percentage of MN: IC50 values, control 2.9 ± 0.2
Description: MRC-5 cells were seeded at a density of 2 × 10^4 cells/well onto glass coverslips, which were placed in six-well plates containing 3 mL of cell culture medium and incubated for 24 h. […] After exposure, the coverslips were washed three times with PBS and treated with a hypotonic solution (75 mM KCl) for 10 min at room temperature. The hypotonized cells were fixed with at least three changes of a 1/3 acetic acid/methanol solution. Following fixation, the coverslips were washed with cold methanol containing 1% acetic acid. Acridine orange staining (50 μg/mL) was applied for 15 min at 37 °C, after which the coverslips were rinsed three times with PBS to remove any excess stain. The number of micronucleated cells per 1000 cells was then counted. ,– ,

MCF-7 cells [4] = assay: AO/EB staining detection of apoptotic cells; type: cell-based, human; settings: 48 h; for percentage of apoptotic cells: MCF-7, IC50 values, untreated 11.7 ± 2.8%
Description: Apoptotic MCF-7 cells were quantified and characterized using the AO/EB staining assay under fluorescence microscopy, and the results were correlated with previously observed morphological changes in the cells. The type of cell death was evaluated after incubation with complexes 1–5 for 48 h. This assay detects nuclear changes based on differences in membrane integrity between live and apoptotic cells. The fluorescent EB dye stains red only those cells that have lost membrane integrity, while the fluorescent AO dye stains both live and dead cells green. , Untreated MCF-7 cells display green radiation emitting nuclei. The percentage of apoptosis in untreated cells was calculated as 11.7 ± 2.8%. In apoptotic cells, varying degrees of changes are observed. Early stages of apoptosis are indicated by greenish-yellow fluorescent nuclei or green-yellow fragments, while late stages are characterized by orange fluorescence or the presence of orange fragments.
The MCF-7 cells were seeded into a 24-well plate (70,000 cells per well) and cultured at 37 °C for 24 h. […] Control and treated cells were collected after 48 h, the cells were harvested, washed twice with PBS and centrifuged. Twenty-five μL of cell suspension in PBS were incubated with 50 μg/mL AO and 50 μg/mL EB solution. Then, the cells were mixed gently and 10 μL of cells in suspension was placed on a glass slide and a coverslip was placed over it. At random, 300 cells were immediately observed in a fluorescent microscope (Optika inverted fluorescence microscope) and examined at ×60 magnification. ,

MCF-7 cells [5] = assay: Cell cycle arrest, flow cytometry; type: cell-based, human; settings: for cell population in sub-G1 phase / cell population in G0/G1 phase / cell population in S phase: MCF-7, IC50 values, 48 h; for cell population in sub-G1 phase: untreated 5.1%; for cell population in G0/G1 phase: untreated 38.8%; for cell population in S phase: untreated 9.4%
Description: The MCF-7 cells were seeded into a 24-well plate (70,000 cells per well) and cultured at 37 °C for 24 h. […] For each sample, 10,000 events were recorded. The resulting DNA histograms were drawn and quantified using the FlowJo software (version FlowJo X 10.0.7r2). This assay was performed as reported previously. ,–

MCF-7 cells [6] = assay: Mitochondrial membrane permeabilization (MMP) assay; type: cell-based, human; settings: MCF-7, IC50 values, 48 h
From the text: The assay relies on the fluorescence of a cationic hydrophobic dye, which accumulates in the mitochondrial membrane. Any quenching of the dye’s emitted fluorescence is attributed to the disruption of the mitochondrial membrane, resulting in the release of cytochrome C into the cytosol. ,− The percentage of fluorescence quenching in MCF-7 cells treated with compounds 1–5 is up to 20.7%, with the specific values being 20.0% (1), 20.7% (2), 2.9% (3), 5.1% (4), and 9.6% (5). […] Consequently, cell morphology, AO/EB staining, cell cycle arrest and MMP studies indicate that compounds 1–5 induce apoptosis in MCF-7 cells, primarily through direct or indirect interaction with DNA.
The MMP assay was conducted using the ″Mitochondria Membrane Potential Kit for Microplate Readers″ (MAK147), purchased from Sigma-Aldrich. MCF-7 cells were treated with 1–5 at their IC50 concentration. Fluorescence intensity was measured at an excitation wavelength of λex = 540 nm and an emission wavelength of λem = 590 nm. The experimental results included fluorescence intensities from the treated and untreated cell solutions. ,–

calf thymus (CT)-DNA = assay: CT-DNA binding, UV absorption spectroscopy; settings: for binding constant K b toward CT-DNA: UV absorbance at 300–310 nm, CT-DNA 10–100 μΜ; for percentage of hyperchromism: UV spectra of CT-DNA with gradual additions of complex
Description: In order to elucidate the mechanism of action of compounds 1–5 against MCF-7 cells, their interaction with CT-DNA was investigated using UV absorption and fluorescence spectroscopy. The UV absorption spectra of compounds 1–5 were recorded both in the presence and absence of CT-DNA (Figure S27). […] The calculated K b values for 1–5 are (10.5 ± 1.8) × 10^4 (1), (6.3 ± 0.6) × 10^4 (2), (11.3 ± 1.6) × 10^4 (3), (7.5 ± 1.0) × 10^4 (4) and (10.2 ± 1.1) × 10^4 (5) M^–1, respectively.
For the experiments of titration, UV spectra of CT-DNA in buffer solution in the absence and presence of 1–5 at r values of 0–0.13 (r = [complex]/[DNA], [DNA] = 10^–4 M) were recorded. ,− In order to determine the constant K b value, UV spectra of 1–5 in the absence and presence of CT-DNA at r values 1–0.1 ([complex] = 10 μM, [CT DNA] = 10–100 μM) were investigated.^24,26–30 The K b value is obtained from the ratio of the slope to the y-intercept in plots [DNA]/(εa–εf) versus [DNA] (e a = A obsd/[compound], e f = the extinction coefficient for the free compound). ,−

SMILES | IC50 [1] [µM] | pIC50 MCF-7 [1] | IC50 [2] [µM] | IC50 [3] [µM] | Relative ratio of MN in respect to untreated cells (MRC-5 cells) [fold] | Relative ratio of MN in respect to untreated cells (MRC-5 cells; 48 h) | Percentage of MN (MRC-5 cells; 48 h) [%] | relative rate of apoptotic MCF-7 cells in respect to untreated control (MCF-7 cells [4]) | percentage of apoptotic cells (MCF-7 cells [4]) [%] | Relative rate of MCF-7 cells in sub-G1 phase compared to untreated cells (MCF-7 cells [5]) | cell population in sub-G1 phase (MCF-7 cells [5]) [%] | cell population in G0/G1 phase (MCF-7 cells [5]) [%] | percentage of fluorescence quenching (MMP) (MCF-7 cells [6]) [%] | binding constant K b toward CT-DNA (calf thymus (CT)-DNA) | percentage of hyperchromism (calf thymus (CT)-DNA) [%] | cell population in S phase (MCF-7 cells [5]) [%] | fold higher increase in MCF-7 sub-G1 population compared to the other compounds and cisplatin (MCF-7 cells [5]) [fold]
Fc1ccc(-c2nnc([S][Ag]([PH](c3ccccc3)(c3ccccc3)c3ccccc3)([PH](c3ccccc3)(c3ccccc3)c3ccccc3)[PH](c3ccccc3)(c3ccccc3)c3ccccc3)o2)cc1 [compound 3] | 2.15 ± 0.16 | 5.7 | 2.52 ± 0.07 | 2.72 ± 0.19 | 1.31 | 1.3 and 1.31 | 3.8 ± 0.2 | 4.01 and 4.0 | 46.9 ± 8.0 | 2.5 | 12.8 | 72.0 | 2.9 | 11.3 ± 1.6 × 10^4 M^–1 and 11.3 × 10^4 M^–1 | 28.0 | – | –
Fc1ccccc1-c1nnc([S][Ag]([PH](c2ccccc2)(c2ccccc2)c2ccccc2)([PH](c2ccccc2)(c2ccccc2)c2ccccc2)[PH](c2ccccc2)(c2ccccc2)c2ccccc2)o1 [compound 2] | 2.5 ± 0.19 | 5.6 | 3.9 ± 0.14 | 3.12 ± 0.11 | 1.24 | 1.2 and 1.24 | 3.6 ± 0.5 | 5.8 | 64.8 ± 2.5 | 1.7 | 8.9 | 76.9 | 20.7 | 6.3 ± 0.6 × 10^4 M^–1 | 7.6 | – | –
c1ccc(-c2nnc([S][Ag]([PH](c3ccccc3)(c3ccccc3)c3ccccc3)([PH](c3ccccc3)(c3ccccc3)c3ccccc3)[PH](c3ccccc3)(c3ccccc3)c3ccccc3)o2)cc1 [compound 1] | 2.03 ± 0.09 | 5.7 | 4.09 ± 0.17 | 3.77 ± 0.16 | 1.38 | 1.4 and 1.38 | 4.0 ± 0.6 | 5.13 and 5.1 | 60.0 ± 5.2 | 2.8 | 14.5 | – | 20.0 | 10.5 ± 1.8 × 10^4 M^–1 | 4.0 | 15.4 | –
Clc1cccc(-c2nnc([S][Ag]([PH](c3ccccc3)(c3ccccc3)c3ccccc3)([PH](c3ccccc3)(c3ccccc3)c3ccccc3)[PH](c3ccccc3)(c3ccccc3)c3ccccc3)o2)c1 [compound 5] | 1.69 ± 0.08 | 5.8 | 3.55 ± 0.19 | 2.89 ± 0.08 | – | 2.3 and 2.34 | 6.8 ± 1.5 | 5.5 | 64.3 ± 8.2 | 8.1 | 41.1 | – | 9.6 | 10.2 ± 1.1 × 10^4 M^–1 and 10.2 × 10^4 M^–1 | 1.2 | 48.3 | –
Clc1ccccc1-c1nnc([S][Ag]([PH](c2ccccc2)(c2ccccc2)c2ccccc2)([PH](c2ccccc2)(c2ccccc2)c2ccccc2)[PH](c2ccccc2)(c2ccccc2)c2ccccc2)o1 [compound 4] | 3 ± 0.15 | 5.5 | 4.27 ± 0.15 | 4.07 ± 0.24 | 1.69 | 1.7 and 1.69 | 4.9 ± 0.5 | 4.03 and 4.0 | 47.2 ± 5.6 | 2.6 | – | – | 5.1 | 7.5 ± 1.0 × 10^4 M^–1 | 8.5 | 26.5 | 3
